# Assay results from US8110365B2, “Compositions and methods for detecting and treating renal injury and inflammation” (Rhode Island Hospital, priority 2006, dated 2012).
# “Also recorded” adds a separate entry of the source. Where two headings read alike, the source gives them in different places.
# Columns and labels:
# [1] = tested on: b-catenin; experiment: b-catenin accumulation in HKC; assay type: cell-based, human
# [2] = target: GSK3b (Homo sapiens, UniProt P49841); experiment: Inhibitory phosphorylation of GSK3b in HKC cells (immunoblot); assay type: cell-based; design: endogenous in cells; host or cells: HKC-8
# Experimental: (§1) Human proximal TEC (HKC-8) (courtesy of Dr. L. Racusen of John Hopkins University, Baltimore, Md.) were maintained in Dulbecco's modified Eagle's medium (DMEM)/F12 supplemented with 5% fetal bovine serum (FBS). Cells were plated at approximately 70% confluence in the media containing 5% FBS for 24 h and then underwent serum starvation for another 24 h. Human recombinant HGF and human recombinant TNF-α (R&D systems, Minneapolis, Minn.) were added to the culture with fresh serum-free medium at a final concentration of 20 ng/ml and 2 ng/ml respectively, or otherwise as indicated. Cell viability was assessed by Trypan blue exclusion. At different time points, cells and conditioned media were harvested for further investigation.
# (§2) After different treatments, HKC cells were washed with PBS and lysed with RIPA buffer supplemented with protease inhibitors [1% Nonidet P-40, 0.1% SDS, 100 ug/ml phenylmethysulfonyl fluoride (PMSF), 0.5% sodium deoxycholate, ImM sodium orthovanadate, 2 ug/ml aprotin, 2 ug/ml leupeptin, 5mM EDTA in PBS]. Protein concentration was determined by using a bicinchoninic acid protein assay kit (Sigma). All samples with equal amounts of total protein (50 ug/ml) were fractionated by 7.5˜15% SDS-polyacrylamide gels under reducing condition and analyzed by western immunoblot as described previously (30). The antibodies against p-GSK3b, p-NFkB p65, p-IkBa were purchased from Cell Signaling Technology (Beverly, Mass.) and those for GSK3b, hemagglutin were from Santa Cruz Biotechnology (Santa Cruz, Calif.).
# [3] = tested on: HKC cells; experiment: Cell viability of HKC cells (Trypan blue exclusion); assay type: cell-based, human; settings: TNF-a (2 ng/ml) treated HKC cells at 24 h
# Experimental: as §1
# [4] = target: T1, GSK3b and NFkB p65 (Homo sapiens, UniProt P49841); experiment: Co-immunoprecipitation of GSK3b and NFkB p65 in HKC cells; assay type: cell-based; settings: HKC cells
# T1 construct: whole cell lysates were subjected to immunoprecipitation by anti-GSK3b or anti-p65 antibody; endogenous in cells; host or cells: HKC-8
# Experimental: Immunoprecipitation was carried out by using an established method as described previously. Briefly, cells were washed with ice cold PBS and then lysed with RIPA buffer. After preclearing with normal IgG, cell lysates with equal amount of total protein (0.5 mg of protein) were incubated overnight at 4° C. with 4 μg specific agarose-conjugated antibodies. The precipitated complexes were collected, washed, and separated on SDS-polyacrylamide gels and blotted with various antibodies as indicated.
# [5] = tested on: NFkB target genes; experiment: Real time RT-PCR of NFkB target genes in TNF-a stimulated HKC cells; assay type: cell-based, human; settings: HKC cells, 12 h
# Experimental: Total RNA was extracted from approximately 1×10^6 cultured HKC cells using TRIzol solution (Invitrogen, Carlsbad, Calif.) according to the instructions specified by the manufacturer. RNA was then diluted to 3μg/μl in RNase free distilled water. The first strand cDNA was prepared using 3 μg RNA, Superscript RT reverse transcriptase (Invitrogen) and oligo (dT) primer according to the manufacture's instruction. Quantitative real time PCR was carried out on a Stratagene Mx4000® multiplex quantitative PCR system (Stratagene, La Jolla, Calif.) using primers specific for human MCP-1, RANTES, IkBa, Bcl-2 and GAPDH. All reactions were performed in triplicate with Brilliant® SYBR® Green QPCR Master Mix (Stratagene). Fluorescence values of SYBR Green I dye, representing the amount of product amplified at that point in the reaction, were recorded in real time at both the annealing step and the extension step of each cycle. The Ct value, defined as the point at which the fluorescence signal was statistically significant above background, was calculated for each amplicon in each experimental sample using Stratagene Mx4000 software. This value was then used to determine the relative amount of amplification in each sample by interpolating from the standard curve. Transcript level of each specific gene was normalized to GAPDH amplification.
# [6] = tested on: rats with unilateral urethral obstruction(UUO); experiment: Rats with unilateral urethral obstruction (UUO); assay type: in vivo, rat; settings: for renal inflammation (ED-1 macrophage infiltration): VPA 200 mg/kg/d ip, 5 days
# [7] = tested on: NFkB p65; experiment: TNF-a induced NFkB p65 phosphorylation in HKC cells (immunoblot); assay type: cell-based, human; settings: HKC cells; for TNF-a induced p65 phosphorylation at S468: TNF-a 2 ng/ml, VPA 1 mM, 10 uM for 60 minutes
# Experimental: as §1, §2
# [8] = kidney homogenates, immunoblot, listed as VPA
# GSK3b, sequence (P49841 whole entry): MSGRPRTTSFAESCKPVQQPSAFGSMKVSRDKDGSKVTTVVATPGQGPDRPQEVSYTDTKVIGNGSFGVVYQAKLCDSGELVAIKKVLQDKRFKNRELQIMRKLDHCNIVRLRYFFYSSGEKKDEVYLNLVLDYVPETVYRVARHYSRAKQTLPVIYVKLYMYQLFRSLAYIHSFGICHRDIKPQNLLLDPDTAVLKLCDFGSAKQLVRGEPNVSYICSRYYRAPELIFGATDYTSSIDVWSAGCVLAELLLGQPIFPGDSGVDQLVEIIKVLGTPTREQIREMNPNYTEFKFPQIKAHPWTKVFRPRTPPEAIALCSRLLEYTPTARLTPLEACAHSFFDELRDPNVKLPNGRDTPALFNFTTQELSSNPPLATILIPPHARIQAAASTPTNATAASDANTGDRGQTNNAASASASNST
# T1 sequence (P49841 whole entry): as above
Structure (SMILES),b-catenin accumulation [1],inhibitory phosphorylation of GSK3b (S9) [2],cell viability / TNF-a induced apoptosis [3],TNF-a induced co-precipitation of phosphorylated p65 (Ser468) with GSK3b ([4]; immunoprecipitation by anti-GSK3b),TNF-a induced GSK3b to p65 interaction ([4]; immunoprecipitation by anti-p65),TNF-a induced mRNA expression of IkBa and Bcl-2 [5],TNF-a induced mRNA expression of MCP-1 and RANTES [5],renal inflammation (ED-1 macrophage infiltration) [6],renal inflammation (ED-1 macrophage infiltration) ([6]; listed as VPA),"renal total GSK3b expression ([6]; kidney homogenates, immunoblot)","renal inhibitory phosphorylation of GSK3b [6, 8]","renal total GSK3b expression [6, 8]",inhibitory phosphorylation of GSK3b (S9) ([2]; listed as Sodium valproate),inhibitory phosphorylation of GSK3b (S9) ([2]; listed as Valproic acid),"TNF-a induced p65 phosphorylation at other sites (S276, S536) [7]",TNF-a induced p65 phosphorylation at S468 [7],TNF-a induced p65 phosphorylation at S468 ([7]; listed as VPA)
Cn1sc(=O)n(Cc2ccccc2)c1=O [TDZD-8],induced b-catenin (b-Cat.) accumulation,induced marked GSK3b phosphorylation,Only lithium significantly reduced cell viability,,,,,,,,,,,,,,
"CCCC(CCC)C(=O)O [valproate, Valproic acid, reference compound]",induced b-catenin (b-Cat.) accumulation,induced marked GSK3b phosphorylation,Only lithium significantly reduced cell viability,mimicking the action of VPA,reminiscent the effect of VPA,mimicked the action of HGF on the expression of these genes,mimicked the action of HGF on the expression of these genes,prevented inflammatory infiltration; also recorded: markedly ameliorates renal inflammation,diminished renal inflammation,blunted induced expression of GSK3b in the diseased kidney,much greater; also recorded: enhanced its inhibitory phosphorylation,substantially suppressed total GSK3b expression,induced phosphorylation of GSK3b at Ser9,induces inhibitory phosphorylation of GSK3b at S9,minimally affected phosphorylation of p65 at other sites,suppresses TNF-a elicited p65 phosphorylation at S468,abrogates the TNF-a induced NFkB p65 phosphorylation at Ser468 in a dose dependent manner
